In one data set the test system is HBsAg. Nature of the data set: HBsAg assay (secreted HBsAg by CLIA in HepG2.2.15 cells). Format: cell-based, hepatitis B virus (HBV). The following applies: Hepatitis B virus, HepG2.2.15, 96 h. In short, it runs like this:
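HepG2.2.15 cells were exposed to a five-fold compound dilution series (0.5% DMSO final) for four days. Secreted HBsAg in supernatant quantified by chemiluminescence immunoassay; IC50 extrapolated from dose-response curves.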

Data set [1] in a line: Cytotoxicity CC50 (CellTiter-Glo). Conditions: human; HepG2.2.15 cells, four days. The class given is cell-based. The procedure:
HepG2.2.15 cells were seeded into 96-well white plate at 5000 cells/well and treated with serially diluted compounds. The plates were incubated in incubator with 5% CO2 at 37° C. for four days. The plate was taken out of incubator and adapted to room temperature for 30 minutes, followed by adding 25 μl CellTiter-Glo (Promega) reagent into each well and votexed at room temperature before being measured for luminance using spectrometer (Tecan Infinite® F200). The CC50 of each compound was defined as the compound concentration at which the treated well's cell viability is 50% compared to that of the DMSO treated well.
For orientation: In ATP-based viability assays light output follows the ATP content of the culture.

What is called IC50 is the concentration at which inhibition is half-maximal. A higher IC50 goes with lower potency. Broadly, the CC50 is the concentration giving 50% cytotoxicity. A lower CC50 goes with greater toxicity to the cells. For the compound `CCOC(=O)CCCn1cc(-c2cc3c(cc2OC)-c2cc(=O)c(C(=O)OCC)cn2C(C(C)(C)C)C3)ccc1=O` (centres unmarked) [Example 75, Ethyl 6-(tert-butyl)-9-(1-(4-ethoxy-4-oxobutyl)-6-oxo-1,6-dihydropyridin-3-yl)-10-methoxy-2-oxo-6,7-dihydro-2H-pyrido[2,1-a]isoquinoline-3-carboxylate], half-maximal inhibition in the data set on HBsAg (IC50) required 0.466 µM. For the same compound, the CC50 at 4 days in data set [1] is 50 to 100 µM.

The record behind these values is patent US10717730B1, “Dihydroisoquinoline compound” (SUZHOU ARK BIOPHARMACEUTICAL CO., LTD., priority 2017, dated 2020).
